Assay [1] deals with T1, Transient receptor potential cation channel subfamily V member 1 (Homo sapiens, UniProt Q8NER1). The assay is described as follows: Antagonist activity at human TRPV1 expressed in CHO cells assessed as inhibition of capsaicin-induced (45)Ca2+ uptake after 5 mins by liquid scintillation counting analysis. To be noted: for pKi: read-out: Ki. Format: cell-based.
Assay [2] concerns the target T1, Transient receptor potential cation channel subfamily V member 1. Description: Agonist activity at human TRPV1 expressed in CHO cells assessed as (45)Ca2+ uptake after 5 mins by liquid scintillation counting analysis. Format: cell-based.
Assay [3] shares this target. The assay is described as follows: Displacement of [3H]RTX from human TRPV1 expressed in CHO cells after 60 mins by scintillation counting analysis. Format: cell-based. The settings on record: for pKi: read-out: Ki.
Another assay concerns Mus musculus. Description: Analgesic activity in ip dosed formalin-induced mouse pain model after 20 to 30 mins. Format: functional.

The structures appear in SMILES notation. pKi: −log10 of the molar value.

T1 sequence (Q8NER1 whole entry): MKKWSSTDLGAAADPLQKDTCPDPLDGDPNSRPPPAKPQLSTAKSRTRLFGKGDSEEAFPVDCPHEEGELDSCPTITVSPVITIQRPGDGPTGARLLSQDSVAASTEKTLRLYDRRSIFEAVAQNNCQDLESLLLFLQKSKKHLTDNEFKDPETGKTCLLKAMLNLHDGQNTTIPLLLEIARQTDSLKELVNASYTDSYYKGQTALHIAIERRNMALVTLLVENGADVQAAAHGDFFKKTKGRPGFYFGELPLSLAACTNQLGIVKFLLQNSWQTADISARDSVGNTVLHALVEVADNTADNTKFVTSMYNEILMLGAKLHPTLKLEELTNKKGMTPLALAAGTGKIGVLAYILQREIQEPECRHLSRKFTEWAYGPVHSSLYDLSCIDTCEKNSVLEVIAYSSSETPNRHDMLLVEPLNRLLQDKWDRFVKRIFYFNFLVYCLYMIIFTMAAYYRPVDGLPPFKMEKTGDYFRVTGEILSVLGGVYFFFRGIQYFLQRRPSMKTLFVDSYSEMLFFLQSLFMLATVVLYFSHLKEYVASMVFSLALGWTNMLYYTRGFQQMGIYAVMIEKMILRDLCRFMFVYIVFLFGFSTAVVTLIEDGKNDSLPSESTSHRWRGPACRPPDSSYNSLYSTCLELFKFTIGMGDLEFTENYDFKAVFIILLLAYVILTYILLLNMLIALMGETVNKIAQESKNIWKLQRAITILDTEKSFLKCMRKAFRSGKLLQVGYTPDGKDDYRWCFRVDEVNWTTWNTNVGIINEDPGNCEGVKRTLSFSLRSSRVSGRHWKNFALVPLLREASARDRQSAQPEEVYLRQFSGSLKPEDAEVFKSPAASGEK

Regarding `CC(C(=O)NCc1ccc(C(F)(F)F)nc1N(c1ccccc1)S(=O)(=O)c1ccccc1)c1ccc(NS(C)(=O)=O)c(F)c1` (configuration not stated), the pKi was 8.22 in assay [1] and 7.74 in assay [3]. For the same compound, the EC50 entry in assay [2] is given as “Not Active”.

As to `CC(C(=O)NCc1ccc(C(F)(F)F)nc1N(Cc1ccc(F)cc1)S(=O)(=O)c1ccccc1)c1ccc(NS(C)(=O)=O)c(F)c1` (configuration not stated), the pKi in assay [1] is 8.13; in assay [3] it was 8.63. Besides, the EC50 result in assay [2] is “Not Active”.

`CC1CCN(c2nc(C(F)(F)F)ccc2CNC(=O)C(C)c2ccc(NS(C)(=O)=O)c(F)c2)CC1` (configuration not stated): the negative-log Ki (pKi) is 8.65 in assay [1] and 8.10 in assay [3]. For the same compound, the EC50 entry in assay [2] was “Not Active”.

In the case of `Cc1ccc(CN(c2nc(C(F)(F)F)ccc2CNC(=O)C(C)c2ccc(NS(C)(=O)=O)c(F)c2)S(=O)(=O)c2ccccc2)cc1` (configuration not stated), the negative logarithm of the Ki (pKi) is 8.26 in assay [1] and 8.73 in assay [3]. The EC50 entry in assay [2] was “Not Active”.

`CCCS(=O)(=O)N(Cc1ccccc1)c1nc(C(F)(F)F)ccc1CNC(=O)C(C)c1ccc(NS(C)(=O)=O)c(F)c1` (configuration not stated): in assay [2], the EC50 result is on record as “Not Active”.

Regarding `CC(C(=O)NCc1ccc(C(F)(F)F)nc1N(C)S(=O)(=O)c1ccccc1)c1ccc(NS(C)(=O)=O)c(F)c1` (configuration not stated), the negative-log Ki (pKi) is 7.00 in assay [1] and 6.16 in assay [3]. In addition, the EC50 result in assay [2] was “Not Active”.

As to `CC(C(=O)NCc1ccc(C(F)(F)F)nc1N(c1ccc(F)cc1)S(=O)(=O)c1ccccc1)c1ccc(NS(C)(=O)=O)c(F)c1` (configuration not stated), the pKi was 7.93 in assay [1] and 8.14 in assay [3]. Moreover, the EC50 entry in assay [2] is given as “Not Active”.

Take `CC1CCN(c2nc(C(F)(F)F)ccc2CNC(=O)[C@@H](C)c2ccc(NS(C)(=O)=O)c(F)c2)CC1`: the pKi is 8.90 in assay [1] and 8.53 in assay [3]. In addition, in assay [2], the EC50 entry was “Not Active”.

Consider `CC(C(=O)NCc1ccc(C(F)(F)F)nc1NS(=O)(=O)c1ccccc1)c1ccc(NS(C)(=O)=O)c(F)c1` (configuration not stated), for which the Ki entry in assay [1] (cho) and in assay [3] (cho) was “Active” throughout. The EC50 result in assay [2] is “Not Active”.

With `CC(C(=O)NCc1ccc(C(F)(F)F)nc1N(Cc1ccccc1)S(=O)(=O)c1ccccc1)c1ccc(NS(C)(=O)=O)c(F)c1` (configuration not stated), in assay [1], the pKi was 8.23. Moreover, the EC50 result in assay [2] is on record as “Not Active”. The pKi in assay [3] is 8.70. Moreover, in the assay on Mus musculus, the Activity entry was “Dose-dependent effect” and the ED50 was 15.6 mg/kg.

In the case of `CC(C(=O)NCc1ccc(C(F)(F)F)nc1N(C(C)C)S(=O)(=O)c1ccccc1)c1ccc(NS(C)(=O)=O)c(F)c1` (configuration not stated), the pKi in assay [1] was 7.56; in assay [3], 6.39. The EC50 result in assay [2] is listed as “Not Active”.

As for `Cc1ccc(CN(c2nc(C(F)(F)F)ccc2CNC(=O)C(C)c2ccc(NS(C)(=O)=O)c(F)c2)S(=O)(=O)c2ccc(F)cc2)cc1` (configuration not stated), the pKi in assay [1] was 8.15; in assay [3], 8.48. Besides, the EC50 entry in assay [2] is recorded as “Not Active”.

In the case of `CC(C(=O)NCc1ccc(C(F)(F)F)nc1N(Cc1ccccc1)S(C)(=O)=O)c1ccc(NS(C)(=O)=O)c(F)c1` (configuration not stated), the pKi in assay [1] is 7.60; in assay [3], 7.00. The EC50 entry in assay [2] is given as “Not Active”.

As to `CC(C(=O)NCc1ccc(C(F)(F)F)nc1N(Cc1ccccc1)S(=O)(=O)c1ccc(F)cc1)c1ccc(NS(C)(=O)=O)c(F)c1` (configuration not stated), the pKi in assay [1] is 8.41; in assay [3] it was 8.81. Besides, the EC50 result in assay [2] was “Not Active”.

For the compound `COc1ccc(CN(c2nc(C(F)(F)F)ccc2CNC(=O)C(C)c2ccc(NS(C)(=O)=O)c(F)c2)S(=O)(=O)c2ccccc2)cc1` (configuration not stated), the figures for the pKi in assay [1] and in assay [3] were 8.67 and 8.12, respectively. The EC50 entry in assay [2] is “Not Active”.

For `CC(C(=O)NCc1ccc(C(F)(F)F)nc1N(Cc1ccc(Cl)cc1)S(=O)(=O)c1ccc(F)cc1)c1ccc(NS(C)(=O)=O)c(F)c1` (configuration not stated), the figures for the pKi in assay [1] and in assay [3] were 8.22 and 9.05, respectively. For the same compound, in assay [2], the EC50 result is “Not Active”.

As to `CC(C(=O)NCc1ccc(C(F)(F)F)nc1N(Cc1ccccc1)S(=O)(=O)c1ccc(Cl)cc1)c1ccc(NS(C)(=O)=O)c(F)c1` (configuration not stated), the results for the pKi in assay [1] and in assay [3] were 8.07 and 9.12, respectively. Also, the EC50 result in assay [2] was “Not Active”.

Consider `CC(C(=O)NCc1ccc(C(F)(F)F)nc1N(CC1CCCCC1)S(=O)(=O)c1ccccc1)c1ccc(NS(C)(=O)=O)c(F)c1` (configuration not stated), for which the pKi was 8.00 in assay [1] and 8.64 in assay [3]. Further, in assay [2], the EC50 entry was “Not Active”.

As to `CC(C(=O)NCc1ccc(C(F)(F)F)nc1N(Cc1ccc(F)cc1)S(=O)(=O)c1ccc(F)cc1)c1ccc(NS(C)(=O)=O)c(F)c1` (configuration not stated), the pKi in assay [1] was 8.52; in assay [3], 9.15. Also, the EC50 result in assay [2] is “Not Active”.

For `C[C@H](C(=O)NCc1ccc(C(F)(F)F)nc1N(Cc1ccccc1)S(=O)(=O)c1ccccc1)c1ccc(NS(C)(=O)=O)c(F)c1`, the figures for the pKi in assay [1] and in assay [3] were 8.74 and 9.27, respectively. Further, the EC50 result in assay [2] is “Not Active”.

With `COc1ccc(CN(c2nc(C(F)(F)F)ccc2CNC(=O)C(C)c2ccc(NS(C)(=O)=O)c(F)c2)S(=O)(=O)c2ccc(F)cc2)cc1` (configuration not stated), the pKi in assay [1] was 8.10; in assay [3], 8.78. Moreover, the EC50 entry in assay [2] is “Not Active”.

As to `CCS(=O)(=O)N(Cc1ccccc1)c1nc(C(F)(F)F)ccc1CNC(=O)C(C)c1ccc(NS(C)(=O)=O)c(F)c1` (configuration not stated), the pKi was 7.92 in assay [1] and 7.42 in assay [3]. Moreover, in assay [2], the EC50 entry is “Not Active”.

In the case of `CC(C(=O)NCc1ccc(C(F)(F)F)nc1N(Cc1ccccc1)S(=O)(=O)C(C)C)c1ccc(NS(C)(=O)=O)c(F)c1` (configuration not stated), the pKi in assay [1] is 8.21; in assay [3], 7.74. Moreover, the EC50 result in assay [2] is recorded as “Not Active”.

With `CC(C(=O)NCc1ccc(C(F)(F)F)nc1N(Cc1ccc(Cl)cc1)S(=O)(=O)c1ccccc1)c1ccc(NS(C)(=O)=O)c(F)c1` (configuration not stated), the values for the pKi in assay [1] and in assay [3] were 8.24 and 8.89, respectively. For the same compound, the EC50 result in assay [2] is given as “Not Active”.

The values are drawn from ChEMBL document CHEMBL3769312, “2-Sulfonamidopyridine C-region analogs of 2-(3-fluoro-4-methylsulfonamidophenyl)propanamides as potent TRPV1 antagonists” (Bioorg Med Chem, 2016).
